Assay results reported in patent EP4159870A1, “SYSTEM FOR THE DETECTION OF INHIBITORS IN MILK” (Analytik in Milch Produktions- und Vertriebs-GmbH, priority 2021, dated 2023).
Values after ≈ are worked out from the molar mass of the structure shown.

What was measured:
A. pallidus MHI 3391 [1] = assay: FQ-BRT test system, detection of inhibitors in spiked milk samples; assay type: cell-based; conditions: for test result in the FQ-BRT: spiked milk samples at concentrations at the level of the respective MRL; for detection at the detection level: incubation extended by two hours; for Detection at concentration: plates incubated for additional four hours relative to discoloration time of the negative control
Protocol: A. pallidus MHI 3391 was used as the indicator bacteria, endospores were used with a spore count of 1.56 × 10^7 cfu/ml growth medium, the growth medium used was based on BRT basis medium comprising a brilliant black concentration of 100 mg/l, 100 µg/l MOX and 8000 µg/l 8-hydroxyquinoline, adjusted to a pH of 8.5. In the following, this test system will be referred to as FQ-BRT. The incubation of the FQ-BRT was carried out in a water bath at 61 ± 1 °C.
The detection limits determined during the photometric and visual evaluation of test plates are shown in Figure 8 based on positive and negative control (CCβ A and CCβ B) derived from quality curves generated using the logistic regression model.
Discoloration of the negative control on test plates of the FQ-BRT using an UHT milk negative control was observed after an incubation of 302 ± 35 min.

[2] = system: G. stearothermophilus C953 (DSM 1550); assay: BRT test system with Ca-DPA-activated spore suspensions; assay type: cell-based; conditions: Ca-DPA-activated spores versus control plates
Protocol: (§1) 120 mM DPA stock solution was prepared in Tris-base and diluted in a 20-80 mM CaCl2 solution to obtain a Ca-DPA working solution before use. A spore suspension was adjusted to a specific spore count of 1.56 × 10^7 cfu/ml and a Ca-DPA concentration of 40 mM with Ca-DPA working solution and Ringer's solution. The spore suspension was incubated for 3 h in a thermal shaker at 55 °C and 350 rpm.

A. pallidus MHI 3390 = assay: as above; assay type: cell-based; conditions: Ca-DPA-activated spores versus control plates
Protocol: as §1

[3] = system: B. thermoamylovorans MHI 3373; assay: as above; assay type: cell-based; conditions: Ca-DPA-activated spores versus control plates without Ca-DPA activation
Protocol: as §1

A. pallidus MHI 3391 [4] = assay: as above; assay type: cell-based; conditions: Ca-DPA-activated spores versus control plates
Protocol: as §1

[5] = system: A. thermoaerophilus MHI 3397; assay: as above; assay type: cell-based; conditions: Ca-DPA-activated spores versus control plates
Protocol: as §1

A. pallidus MHI 3391 [6] = assay: BRT microbial test system with additives in the growth medium, A. pallidus indicator strain; assay type: cell-based; conditions: for incubated longer than corresponding control plates: additive in growth medium: 100 µg/l CIP, 100 µg/l MOX; for Concentrations detected in spiked milk samples: growth medium with 100 µg/l MOX
Protocol: (§2) The medium was prepared with one additive each. The evaluation of an increase in sensitivity and incubation time until complete discoloration of the negative control was performed by comparison with corresponding control medium, spore suspensions from the same batches and an equivalent number of spores.
(§3) Microbial test systems were prepared according to methods L 01.01-5 (January 2012) and L 01.00-11 (December 2002) ASU. 6.85 g BRT basis medium comprising about 1.5 g/l meat extract, about 3.0 g/l yeast extract, about 4.0 g/l casein peptone, about 6.0 g/l meat peptone, about 1.0 g/l D(+)-glucose, about 10 ml/l trimethoprim solution, and about 10 to […] dissolved in 250 ml distilled water and autoclaved.
(§4) The medium was tempered to 65 °C. 6.25 ml of sterile-filtered brilliant black solution (4 mg/ml, in dist. aqua) and medium additives and the spore suspension was added. The volume of spore suspension to be used was calculated on the basis of the desired spore number [cfu/ml] and the determined spore number of the spore suspension. The spore suspension was adjusted to a volume corresponding to 0.4 to 6 % v/v of the growth medium by dilution in Ringer's solution or by centrifugation (6,000 × g, RT, 10 min).
(§5) 100 µl growth medium per well was aliquoted into 96-well microtiter plates, the test system plates were solidified under the sterile bench for at least 30 min, the test system plates were sealed with adhesive foil and stored at 4 °C with the bottom surface facing upwards.

[7] = system: G. stearothermophilus C953 (DSM 1550); assay: BRT microbial test system with additives in the growth medium, G. stearothermophilus indicator strain; assay type: cell-based; conditions: for longer incubation time until complete discoloration of the negative control: additive in growth medium: 200 µg/l CIP, 150 µg/l MOX, versus control plates
Protocol: as §2, §3, §4, §5

[8] = milk samples, after heating for 20 min at 120 °C; cited from earlier work
[9] = system: G. stearothermophilus C953 (DSM 1550); assay: microbe, parasite or virus in culture; conditions: Geobacillus stearothermophilus, DSM1550
A. pallidus MHI 3391 [10] = assay: microbe, parasite or virus in culture
[11] = 8-hydroxyquinoline at 250, 500, 1000, 2000 and 4000 µg/l in basic growth medium

Cc1onc(-c2ccccc2)c1C(=O)N[C@@H]1C(=O)N2[C@@H]1SC(C)(C)[C@@H]2C(=O)O [oxacillin]
test result in the FQ-BRT (A. pallidus MHI 3391 [1]): intermediate test results

calcium dipicolinic acid [Ca-DPA]
increase in incubation time, mean difference [2]: 139 ± 42 min
increase in incubation time, mean difference (A. pallidus MHI 3390): 139 ± 29 min
shorter incubation time [3]: 23 ± 2 min
increase in incubation time, mean difference (A. pallidus MHI 3391 [4]): 164 ± 52 min
effect on incubation duration [5]: No effect on incubation duration

COc1c(N2C[C@@H]3CCCN[C@@H]3C2)c(F)cc2c(=O)c(C(=O)O)cn(C3CC3)c12 [MOX, moxifloxacin]
incubated longer than corresponding control plates (A. pallidus MHI 3391 [6]): 62 ± 31 min
longer incubation time until complete discoloration of the negative control [7]: 18 ± 0 min

CCN1CCN(c2cc3c(cc2F)c(=O)c(C(=O)O)cn3C2CC2)CC1 [ENR, enrofloxacin]
detection at the detection level (A. pallidus MHI 3391 [1]): 100 µg/kg
Detection at concentration (A. pallidus MHI 3391 [1]): 100 µg/kg
Concentrations detected in spiked milk samples (A. pallidus MHI 3391 [6]): 100 µg/kg
degradation [8]: 5%

gentamicin
test result in the FQ-BRT (A. pallidus MHI 3391 [1]): positive test result

CN1CCN(c2c(F)cc3c(=O)c(C(=O)O)cn4c3c2OCN4C)CC1 [MAR, marbofloxacin]
detection sensitivity (A. pallidus MHI 3391 [1]; incubation extended by three hours): 100 µg/kg
detection at the detection level (A. pallidus MHI 3391 [1]): 75 µg/kg
Concentrations detected in spiked milk samples (A. pallidus MHI 3391 [6]): 75 µg/kg

CCN1CCN(C(=O)N[C@@H](C(=O)N[C@@H]2C(=O)N3C(C(=O)O)=C(CSc4nnnn4C)CS[C@H]23)c2ccc(O)cc2)C(=O)C1=O [cefoperazone]
test result in the FQ-BRT (A. pallidus MHI 3391 [1]): intermediate test results

CCOc1ccc2ccccc2c1C(=O)N[C@@H]1C(=O)N2[C@@H]1SC(C)(C)[C@@H]2C(=O)O [nafcillin]
test result in the FQ-BRT (A. pallidus MHI 3391 [1]): intermediate test results

Oc1cccc2cccnc12 [8-hydroxyquinoline]
Incubation time reduced by (A. pallidus MHI 3391 [6]; 8000 µg/l 8-hydroxyquinoline added to growth medium comprising 100 µg/l MOX): 70 ± 16 min
improvement in detection sensitivity (A. pallidus MHI 3391 [6]; [11]): no improvement in detection sensitivity
Incubation time reduced by (A. pallidus MHI 3391 [6]; addition of 2000 µg/l 8-hydroxyquinoline to basic growth medium): 66 ± 0 min
Incubation time reduced by (A. pallidus MHI 3391 [6]; addition of 4000 µg/l 8-hydroxyquinoline to basic growth medium): 94 ± 7 min
decrease in incubation time (A. pallidus MHI 3391 [6]; combination of 8000 µg/l 8-hydroxyquinoline and 100 µg/l CIP): 17 ± 4 min
MIC [9]: 4 µg/mL (≈ 27.6 µM)
improvement in detection sensitivity [7, 11]: no improvement in detection sensitivity
reduction in incubation time ([7]; addition of 8-hydroxyquinoline): not observed
MIC (A. pallidus MHI 3391 [10]): 8 µg/mL (≈ 55.1 µM)

O=C(O)c1cn(C2CC2)c2cc(N3CCNCC3)c(F)cc2c1=O [CIP, ciprofloxacin]
detection at the detection level (A. pallidus MHI 3391 [1]): 100 µg/kg
Detection at concentration (A. pallidus MHI 3391 [1]): 50 µg/kg
incubated longer than corresponding control plates (A. pallidus MHI 3391 [6]): 17 ± 7 min
Concentrations detected in spiked milk samples (A. pallidus MHI 3391 [6]): 50 µg/kg
concentration detected (A. pallidus MHI 3391 [6]; growth medium with addition of 100 µg/l CIP): 100 µg/kg
effect of addition to growth medium on detection sensitivity ([7]; additive in growth medium: 50 µg/l CIP, 75 µg/l MOX, 100 µg/l LEV): not associated with an increased sensitivity
longer incubation time until complete discoloration of the negative control [7]: 32 ± 10 min
concentration detected in spiked milk samples ([7]; growth medium comprising 100 or 200 µg/l CIP, 100, 125 or 150 µg/l MOX, or 200 µg/l LEV): 200 µg/kg

CN1C[C@@H]2C[C@H]1CN2c1cc2c(cc1F)c(=O)c(C(=O)O)cn2C1CC1 [DAN, danofloxacin]
Concentrations detected in spiked milk samples (A. pallidus MHI 3391 [6]): 120 µg/kg

CO/N=C(\C(=O)N[C@@H]1C(=O)N2C(C(=O)[O-])=C(C[n+]3cccc4c3CCCC4)CS[C@H]12)c1csc(N)n1 [cefquinome]
test result in the FQ-BRT (A. pallidus MHI 3391 [1]): intermediate test results

Cc1onc(-c2c(Cl)cccc2Cl)c1C(=O)N[C@@H]1C(=O)N2[C@@H]1SC(C)(C)[C@@H]2C(=O)O [dicloxacillin]
test result in the FQ-BRT (A. pallidus MHI 3391 [1]): intermediate test results

CC[C@H]1OC(=O)C[C@@H](O)[C@H](C)[C@@H](O[C@@H]2O[C@H](C)[C@@H](O[C@H]3C[C@@](C)(O)[C@@H](O)[C@H](C)O3)[C@H](N(C)C)[C@H]2O)[C@@H](CC=O)C[C@@H](C)C(=O)/C=C/C(C)=C/[C@@H]1CO[C@@H]1O[C@H](C)[C@@H](O)[C@@H](OC)[C@H]1OC [tylosin]
test result in the FQ-BRT (A. pallidus MHI 3391 [1]): positive test result

neomycin
test result in the FQ-BRT (A. pallidus MHI 3391 [1]): positive test result
